Reference: patent US20250002470A1, “NITROGEN-CONTAINING COMPOUND, PREPARATION METHOD THEREFOR AND APPLICATION THEREOF” (ZHEJIANG AIXPLORER BIOTECH CO., LTD., priority 2021, published 2025)

How the values were obtained:
[1] = target: hERG potassium channel (Homo sapiens, UniProt Q12809); test: Whole-cell patch-clamp (QPatch) of hERG current in HEK293 cells stably expressing hERG; type: cell-based
Method: In this study, a whole-cell patch-clamp technique was used to study the inhibitory effect of compounds on hERG potassium channels and to evaluate the risk of ventricular repolarization toxicity.
The HEK293 cell line stably expressing the hERG potassium channel cells was purchased from Creacell, Inc. (Cat. No. A-0320).
The HEK293 cell line that can stably express the hERG potassium channel, was cultured in DMEM medium containing 10% fetal bovine serum and 0.8 mg/mL G418 at 37° C. and 5% carbon dioxide.
Before the test, the cells were separated with TrypLET Express, centrifuged after adding medium to terminate digestion, resuspended the cell count, adjusted the cell density to 2-3×10^6 cells/mL, and then lightly mixed the cells on a room temperature equilibration shaker for 15-20 min.
Electrophysiological assays were performed using a fully automated patch-clamp QPatch 48 X (Sophion) device. The prepared cells were placed on a centrifuge on the Qpatch bench, the cells were washed using multiple centrifugation/suspension methods, and the cell culture medium was replaced with extracellular fluid. Remove an MTP-96 plate and place it in the location of the MTP source. Remove the QPlate chip and subsequently place the QPlate at the Qplate source location. The robotic arm scans the MTP-96 board and the QPlate chip barcode and grabs it to the measuring station. Draw the intracellular and external fluid from the liquid pool and add them to the intracellular fluid pool, cell and test cell pool of the QPlate chip, respectively. At the measuring station, all measuring sites on the QPlate undergo initial quality control. The quality control process includes aspirating the cell suspension from the cell vessel of the centrifuge and positioning the cells to the chip wells via a pressure controller to establish a high-resistance seal and create a whole-cell recording pattern.
The voltage stimulation protocol for whole-cell patch-clamp recording of whole-cell hERG potassium currents is as follows: the cell membrane voltage clamps at −80 mV when a whole-cell closure is formed. The clamping voltage is depolarized from −80 mV to −50 mV for 0.5 s (as a leakage current detection), then steps to 30 mV for 2.5 s, and then quickly recovers to −50 mV for 4 s to excite the tail current of the hERG channel. The data were collected repeatedly every 10 s to observe the effect of the drug on the hERG tail current. −50 mV stimulation at 0.5 s was used as the leakage current detection. The test data is collected by Qpatch and stored in the connected service station.
First, the current after the effect of each drug concentration and the blank control current are normalized 0, and then the inhibition rate corresponding to each drug concentration is calculated.
Calculate the mean and standard error for each concentration and calculate the semi-inhibitory concentration for each compound using the following Formula:
Y=Bottom+(Top−Bottom)/(1+10^((LogIC50−X)*HillSlope)) The above Formula was used to fit the dose-dependent effect nonlinearly, where C represents the test substance concentration, IC50 is the semi-inhibitory concentration, and h represents the Hill coefficient. Curve fitting and IC50 calculations were performed using Graphpad software.

[2] = target: T1, NLRP3 (Homo sapiens, UniProt Q96P20); test: IL-1β (interleukin-1β) secretion in IFN-γ-differentiated, LPS/ATP-stimulated THP-1 cells (half inhibition rate of NLRP3); type: cell-based; settings: IFN-γ 25 ng/mL, LPS 50 ng/mL, ATP 5 mM
T1 construct: endogenous in cells; host or cells: THP-1 cells (IFN-γ differentiated, LPS primed, ATP stimulated)
Method: Remove THP-1 cells from liquid nitrogen and place in a 37° C. water bath until ice melt. Add the cells to 5 mL of warm cell culture medium and centrifuge at 1,000 rpm for 5 min. Discard the supernatant and resuspend and culture in a new cell culture medium.
THP-1 cells are cultured in the culture medium and passaged every 2-3 days.
2.1.1 Add 100 μL of cell suspension per well to the cell plate and incubate the cell plate in a 37° C., 5% CO2 incubator for 24 hours.
2.2.1 Discard the supernatant of IFN-γ differentiation after differentiation treatment. Add 100 μL of serum-free medium containing LPS (final concentration of 50 ng/mL) to the cell plate. The cell plates were incubated in a 37° C., 5% CO2 incubator for 4 h.
Place the cell plate in an incubator at 37° C. and 5% CO2 for 1 hour.
2.2.3 Add 20 μL of 6×ATP per well according to the plate map (final concentration 5 mM) and incubate the cell plate in a 37° C., 5% CO2 incubator for 1 h. Collect the supernatant (60 μL) and store at −20° C.
The capture antibody mAb Mt175 is diluted to 2 μg/mL with PBS (1:250) and added to the cell plate at 15 μL per well. Keep the plate overnight at 4° C.
2.4.1 Discard the coated antibody and wash 4 times with PBST.
2.4.3 Discard the blocking buffer and wash 4 times with PBST.
2.4.4 Add 25 μL of 2.2.3 collected supernatant sample per well and incubate for 2 h at room temperature.
2.4.5 Discard the samples and wash 4 times with PBST.
2.4.6 Add mAb7P10-biotin (concentration 0.5 ug/mL) to blocking buffer, add 15 μL per well to the cell plate, and incubate for 1 hour at room temperature.
2.4.7 Discard the antibody and wash 4 times with PBST.
2.4.8 Streptavidin-HRP was diluted 1:1000 in blocking buffer, 15 μL per well was added to the cell plate, and incubated for 1 hour at room temperature.
2.4.9 Discard streptavidin-HRP and wash 4 times with PBST.
2.4.10 Add 25 μL of HRP substrate (Surmodics-TMBW-0100-01) per well and incubate the cell plate until a blue product appears.
2.4.11 Add 25 μL of stop solution (Surmodics-LSTP-0100-01) per well, and the blue product turns yellow.
2.4.12 Read the cell plate at 450 nm with a microplate reader.

Sequence of hERG potassium channel (Q12809 whole entry): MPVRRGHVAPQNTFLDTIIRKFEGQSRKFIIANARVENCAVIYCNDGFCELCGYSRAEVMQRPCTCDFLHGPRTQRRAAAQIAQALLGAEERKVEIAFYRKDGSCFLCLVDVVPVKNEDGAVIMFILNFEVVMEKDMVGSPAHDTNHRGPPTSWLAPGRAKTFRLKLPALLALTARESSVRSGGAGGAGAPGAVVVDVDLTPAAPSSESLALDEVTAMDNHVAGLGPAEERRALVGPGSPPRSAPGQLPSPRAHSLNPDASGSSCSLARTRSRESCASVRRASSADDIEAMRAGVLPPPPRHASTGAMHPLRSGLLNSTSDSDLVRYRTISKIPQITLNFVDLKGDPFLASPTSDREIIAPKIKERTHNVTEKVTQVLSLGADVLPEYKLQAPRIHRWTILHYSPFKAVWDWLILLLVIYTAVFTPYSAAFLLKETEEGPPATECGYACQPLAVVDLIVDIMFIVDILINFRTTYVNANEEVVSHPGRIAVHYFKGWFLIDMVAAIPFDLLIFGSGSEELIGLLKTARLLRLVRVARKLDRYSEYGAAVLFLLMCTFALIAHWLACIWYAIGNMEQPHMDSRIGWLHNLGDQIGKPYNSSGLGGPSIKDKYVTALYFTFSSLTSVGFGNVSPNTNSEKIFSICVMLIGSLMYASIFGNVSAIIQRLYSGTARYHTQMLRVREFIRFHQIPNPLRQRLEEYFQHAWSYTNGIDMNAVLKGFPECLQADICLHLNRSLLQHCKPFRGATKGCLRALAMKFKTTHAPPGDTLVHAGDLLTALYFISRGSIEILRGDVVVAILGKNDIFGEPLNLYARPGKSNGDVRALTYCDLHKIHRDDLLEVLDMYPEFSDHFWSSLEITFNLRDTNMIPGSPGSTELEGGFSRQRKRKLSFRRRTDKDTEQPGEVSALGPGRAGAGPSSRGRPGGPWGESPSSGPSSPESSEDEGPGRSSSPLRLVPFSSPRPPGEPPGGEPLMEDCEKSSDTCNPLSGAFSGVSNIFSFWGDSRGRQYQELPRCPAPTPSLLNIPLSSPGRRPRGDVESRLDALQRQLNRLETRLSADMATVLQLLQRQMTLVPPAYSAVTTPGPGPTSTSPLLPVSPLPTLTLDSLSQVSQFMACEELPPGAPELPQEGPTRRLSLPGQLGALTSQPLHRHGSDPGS
T1 sequence (Q96P20 whole entry): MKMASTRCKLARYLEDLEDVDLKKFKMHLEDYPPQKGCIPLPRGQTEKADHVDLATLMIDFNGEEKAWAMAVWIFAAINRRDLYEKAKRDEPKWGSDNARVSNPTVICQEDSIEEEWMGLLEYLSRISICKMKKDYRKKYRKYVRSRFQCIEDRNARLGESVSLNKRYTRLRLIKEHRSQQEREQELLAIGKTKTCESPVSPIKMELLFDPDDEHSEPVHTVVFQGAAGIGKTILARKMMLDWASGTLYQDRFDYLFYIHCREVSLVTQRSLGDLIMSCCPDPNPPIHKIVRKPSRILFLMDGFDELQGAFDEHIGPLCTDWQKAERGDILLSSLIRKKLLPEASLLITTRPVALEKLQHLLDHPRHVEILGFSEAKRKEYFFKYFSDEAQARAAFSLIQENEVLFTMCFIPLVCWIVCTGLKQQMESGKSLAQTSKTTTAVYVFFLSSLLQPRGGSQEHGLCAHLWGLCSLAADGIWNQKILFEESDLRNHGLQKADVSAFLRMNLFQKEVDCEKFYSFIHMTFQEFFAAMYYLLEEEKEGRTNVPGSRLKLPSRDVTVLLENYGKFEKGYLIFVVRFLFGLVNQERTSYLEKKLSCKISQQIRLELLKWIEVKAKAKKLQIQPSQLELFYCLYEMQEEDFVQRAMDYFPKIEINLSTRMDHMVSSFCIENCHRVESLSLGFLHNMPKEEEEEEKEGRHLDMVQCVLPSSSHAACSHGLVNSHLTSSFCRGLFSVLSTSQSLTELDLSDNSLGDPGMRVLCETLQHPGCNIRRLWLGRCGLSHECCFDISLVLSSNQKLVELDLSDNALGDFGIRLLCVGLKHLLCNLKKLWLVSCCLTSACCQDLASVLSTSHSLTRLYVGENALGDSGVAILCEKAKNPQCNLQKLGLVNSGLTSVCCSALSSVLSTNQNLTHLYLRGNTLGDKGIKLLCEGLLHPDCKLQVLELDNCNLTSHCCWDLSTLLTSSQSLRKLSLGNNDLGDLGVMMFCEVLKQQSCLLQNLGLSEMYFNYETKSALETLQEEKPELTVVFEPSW

Row | SMILES | IC50 [1] | IC50 [2]
1 | CC(CO)N1CCC[C@@H](Nc2nnc(-c3ccc(C(F)(F)F)cc3O)c3ccoc23)C1 (some centres unmarked) [Embodiment 130] | > 30000 nM | 1.9 nM
2 | CC(CO)N1CCC[C@@H](Nc2nnc(-c3ccc(C(F)(F)F)cc3O)c3ccncc23)C1 (some centres unmarked) [Embodiment 126] | > 30000 nM | 3.9 nM
3 | CC(CO)N1CCC[C@@H](Nc2nnc(-c3ccc(C(F)(F)F)cc3O)c3occc23)C1 (some centres unmarked) [Embodiment 131] | > 30000 nM | 7.3 nM
4 | Cc1nc(N[C@@H]2CCCN(CCO)C2)nnc1-c1ccc(Cl)cc1O [Embodiment 152] | > 30000 nM | 10.4 nM
5 | Cc1nc(N[C@@H]2CCCN(C[C@@H](C)O)C2)nnc1-c1ccc(C(F)(F)F)cc1O [Embodiment 150] | > 30000 nM | 9.9 nM
6 | Cc1cc(N[C@@H]2CCCN(C)C2)nnc1-c1ccc(C(F)(F)F)cc1O [Comparison 3] | < 10000 nM | –
7 | Cc1cc(Cl)cc(O)c1-c1cnc(N[C@@H]2CCCC[C@H]2O)nn1 [Embodiment 35, 5-Chloro-2-(3-(((1R,2R)-2-hydroxycyclohexyl)amino)-1,2,4-triazin-6-yl)-3-methylphenol] | > 30000 nM | 12.4 nM
8 | Oc1cc(C(F)(F)F)ccc1-c1nnc(N[C@@H]2CCCC[C@H]2O)c2ncccc12 [Embodiment 70, 2-(8-(((1R,2R)-2-hydroxycyclohexyl)amino)pyrido[2,3-d]pyridazin-5-yl)-5-(trifluoromethyl)phenol] | > 30000 nM | 5.3 nM
9 | Cc1nc(N[C@@H]2CCCN(C(C)CO)C2)nnc1-c1ccc(C(F)(F)F)cc1O (stereo partly drawn) [Embodiment 43, 2-(3-(((3R)-1-(1-hydroxypropyl-2-yl)piperidin-3-yl)amino)-5-methyl-1,2,4-triazin-6-yl)-5-(trifluoromethyl)phenol] | > 30000 nM | 6.5 nM
10 | Oc1cc(C(F)(F)F)ccc1-c1nnc(N[C@@H]2CCCC[C@H]2O)c2ccc(F)cc12 [Embodiment 137] | > 30000 nM | 2 nM
11 | C[C@]1(O)C[C@@H](Nc2nnc(-c3ccc(C(F)(F)F)cc3O)c3ccc(F)cc23)C1 [Embodiment 139] | > 30000 nM | 1.9 nM
12 | OCCN1CCC[C@@H](Nc2nnc(-c3ccc(Cl)cc3O)c3ccc(F)cc23)C1 [Embodiment 153] | > 30000 nM | 2.4 nM
13 | Cc1cc(C(F)(F)F)cc(O)c1-c1cnc(N[C@@H]2CCCN(CCO)C2)nn1 [Embodiment 48, (R)-2-(3-((1-(2-hydroxyethyl)piperidin-3-yl)amino)-1,2,4-triazin-6-yl)-3-methyl-5-(trifluoromethyl)phenol] | > 30000 nM | 9.1 nM
14 | Cc1cc(C(F)(F)F)cc(O)c1-c1cnc(N[C@@H]2CCCN(C(C)CO)C2)nn1 (stereo partly drawn) [Embodiment 47, 2-(3-(((3R)-1-(1-hydroxypropyl-2-yl)piperidin-3-yl)amino)-1,2,4-triazin-6-yl)-3-methyl-5-(trifluoromethyl)phenol] | > 30000 nM | 4.6 nM
15 | CC(CO)N1CCC[C@@H](Nc2nnc(-c3ccc(C(F)(F)F)cc3O)c3cnccc23)C1 (some centres unmarked) [Embodiment 127] | > 30000 nM | 3.5 nM
16 | Cc1cc(C(F)(F)F)cc(O)c1-c1cnc(N[C@@H]2CCC[C@@H](O)C2)nn1 [Embodiment 39] | > 30000 nM | –
17 | CN1CCC[C@@H](Nc2nnc(-c3ccc(C(F)(F)F)cc3O)c3cnccc23)C1 [Embodiment 30, (R)-2-(1-((1-methylpiperidin-3-yl)amino)pyrido[3,4-d]pyridazin-4-yl)-5-(trifluoromethyl)phenol] | – | 2.9 nM

Row | SMILES | IC50 [1] | IC50 [2]
18 | C[C@]1(O)C[C@@H](Nc2nnc(-c3ccc(C(F)(F)F)cc3O)c3ncccc23)C1 [Embodiment 76, 2-(5-(((cis)-3-hydroxy-3-methylcyclobutyl)amino)pyrido[2,3-d]pyridazin-8-yl)-5-(trifluoromethyl)phenol] | – | 11.3 nM
19 | Oc1cc(C(F)(F)F)cc(F)c1-c1nnc(N[C@@H]2CCCC[C@H]2O)c2ncccc12 [Embodiment 140] | – | 9.5 nM
20 | Cc1nc(N[C@@H]2CCCN(CC3CC3)C2)nnc1-c1ccc(C(F)(F)F)cc1O [Embodiment 146] | – | 7.4 nM
21 | Cc1cc(C(F)(F)F)cc(O)c1-c1cnc(N[C@@H]2CCCN(C)C2)nn1 [Embodiment 10, (R)-3-methyl-2-(3-((1-methylpiperidin-3-yl)amino)-1,2,4-triazin-6-yl)-5-(trifluoromethyl)phenol] | – | 15.5 nM
22 | Cc1cc(C)c(-c2cnc(N[C@@H]3CCCN(C)C3)nn2)c(O)c1 [Embodiment 108] | – | 10.9 nM
23 | CN1CCC[C@@H](Nc2nnc(-c3ccc(Cl)cc3O)c3ccncc23)C1 [Embodiment 128] | – | 3 nM
24 | Cc1cc(C)c(-c2cnc(N[C@@H]3CCCN(CC(N)=O)C3)nn2)c(O)c1 [Embodiment 23, (R)-2-(3-((6-(2-hydroxy-4,6-dimethylphenyl)-1,2,4-triazin-3-yl)amino)piperidin-1-yl)acetamide] | – | 376 nM
25 | CN1CCC[C@@H](Nc2nnc(-c3ccc(C(F)(F)F)cc3O)c3c2ccn3C)C1 [Embodiment 114] | – | 31 nM
26 | CN1CCC[C@@H](Nc2nnc(-c3ccc(C(F)(F)F)cc3O)c3[nH]ccc23)C1 [Embodiment 21] | – | 49.4 nM
27 | Cc1cc(C)c(-c2cnc(N[C@@H]3CCCN(C(C)CO)C3)nn2)c(O)c1 (stereo partly drawn) [Embodiment 22, 2-(3-(((3R)-1-(1-hydroxypropyl-2-yl)piperidin-3-yl)amino)-1,2,4-triazin-6-yl)-3,5-dimethylphenol] | – | 24 nM
28 | CN1CCC[C@@H](Nc2nnc(-c3ccc(Cl)cc3O)c3cnccc23)C1 [Embodiment 129] | – | 3.8 nM
29 | Oc1cc(C(F)(F)F)ccc1-c1nnc(N[C@@H]2CCCC[C@H]2O)c2cccnc12 [Embodiment 71] | – | 92.8 nM
30 | Cc1nc(N[C@@H]2CCCN(C(C)CO)C2)nnc1-c1ncc(C(F)(F)F)cc1O (stereo partly drawn) [Embodiment 54, 2-(3-(((3R)-1-(1-hydroxypropyl-2-yl)piperidin-3-yl)amino)-5-methyl-1,2,4-triazin-6-yl)-5-(trifluoromethyl)pyridin-3-ol] | – | 46.4 nM
31 | Cc1cc(Cl)cc(O)c1-c1cnc(N[C@@H]2CCCN(C)C2)nn1 [Embodiment 11, (R)-5-chloro-3-methyl-2-(3-((1-methylpiperidin-3-yl)amino)-1,2,4-triazin-6-yl)phenol] | – | 4 nM
32 | CN1CCC[C@@H](Nc2nnc(-c3ccc(C(F)(F)F)cc3O)c3ccn(C)c23)C1 [Embodiment 113] | – | 16.1 nM
33 | Cc1cc(Cl)cc(O)c1-c1nnc(N[C@@H]2CCCN(C)C2)c2ccccc12 [Embodiment 116] | – | 10.6 nM
